According to ChEMBL document CHEMBL1149893, “Recent developments of carbonic anhydrase inhibitors as potential anticancer drugs” (J Med Chem, 2008):
pKi: −log10 of the molar value.

Target: Carbonic anhydrase 9 (Homo sapiens, UniProt Q16790)

| Structure (SMILES) | pKi |
| --- | --- |
| CC(=O)OC[C@H]1O[C@@H](On2cc(CNC(=O)c3ccc(S(N)(=O)=O)cc3)nn2)[C@H](OC(C)=O)[C@@H](OC(C)=O)[C@@H]1OC(C)=O | 7.12 |
| COC(=O)[C@H]1O[C@@H](On2cc(CNC(=O)c3ccc(S(N)(=O)=O)cc3)nn2)[C@H](O)[C@@H](O)[C@@H]1O | 7.64 |
